This passage reports Activity, IC50 and EC50 results from ChEMBL document CHEMBL4342525, “Synthesis and Biochemical Evaluation of Noncyclic Nucleotide Exchange Proteins Directly Activated by cAMP 1 (EPAC1) Regulators” (J Med Chem, 2020).

Calls of active or inactive are those of the source. The calls are words filed in the database; no cut-off is given here.

In data set [1] the target is T1, Rap guanine nucleotide exchange factor 3 (Homo sapiens) (UniProt O95398).
T1 sequence (whole entry): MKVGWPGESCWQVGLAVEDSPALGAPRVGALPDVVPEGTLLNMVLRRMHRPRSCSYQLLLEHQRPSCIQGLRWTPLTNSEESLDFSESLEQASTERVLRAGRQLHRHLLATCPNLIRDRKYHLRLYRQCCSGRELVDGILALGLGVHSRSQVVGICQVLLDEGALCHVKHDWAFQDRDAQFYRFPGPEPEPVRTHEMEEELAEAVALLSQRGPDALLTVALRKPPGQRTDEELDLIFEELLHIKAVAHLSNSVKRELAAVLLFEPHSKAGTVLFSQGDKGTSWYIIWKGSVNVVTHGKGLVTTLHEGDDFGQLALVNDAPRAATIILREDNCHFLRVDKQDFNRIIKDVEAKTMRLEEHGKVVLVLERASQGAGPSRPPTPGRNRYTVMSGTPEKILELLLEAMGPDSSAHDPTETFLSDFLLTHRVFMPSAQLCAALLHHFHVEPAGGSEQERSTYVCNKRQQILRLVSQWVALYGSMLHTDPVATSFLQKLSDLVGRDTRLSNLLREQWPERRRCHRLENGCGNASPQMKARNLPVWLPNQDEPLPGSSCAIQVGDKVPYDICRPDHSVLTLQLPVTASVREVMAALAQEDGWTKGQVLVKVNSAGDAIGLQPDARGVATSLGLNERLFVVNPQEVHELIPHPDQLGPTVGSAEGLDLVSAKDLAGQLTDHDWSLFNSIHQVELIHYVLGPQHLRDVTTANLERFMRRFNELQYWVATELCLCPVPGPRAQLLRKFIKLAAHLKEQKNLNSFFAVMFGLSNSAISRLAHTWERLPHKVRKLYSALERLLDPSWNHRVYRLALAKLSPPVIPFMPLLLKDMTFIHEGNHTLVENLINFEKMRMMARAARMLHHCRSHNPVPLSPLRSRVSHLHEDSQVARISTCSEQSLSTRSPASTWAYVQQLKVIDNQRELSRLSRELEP
In words: Binding affinity to GST-tagged recombinant EPAC1 CNBD (169 to 318 residues) (unknown origin) expressed in Escherichia coli BL21 Star (DE3) assessed as relative fluorescence intensity incubated for 4 hrs by 8-NBD-cAMP competition binding assay relative to control. Also on record: concentration or dose not given beside the values.

Data set [2] deals with T1, Rap guanine nucleotide exchange factor 3 (Homo sapiens). In words: Activation of recombinant EPAC1 (149 to 881 residues) (unknown origin) assessed as stimulation of dissociation of fluorescent MANT-GDP from recombinant Rap1b at 10 uM in presence of excess nonfluorescent nucleotides by fluorescence based in-vitro GEF assay relative to cAMP.
Data set [3] is described as follows: Activation of PKA in human U2OS cells stably transfected with EPAC1 assessed as increase in VASP phosphorylation at 100 uM by Western blot analysis. Type of data set: cell-based. (Immunoblotting shows a protein as a band on a membrane.)
In data set [4] the target is T1, Rap guanine nucleotide exchange factor 3 (Homo sapiens). In words: Activation of EPAC1 (unknown origin) expressed in U2OS cells at 100 uM incubated for 10 mins using GST-RalGDS-RBD by Western blot analysis based active GTP-bound Rap1 pull down assay. Type of data set: cell-based.
For data set [5] the target is unchanged. The data set is described as follows: Activation of EPAC1 in HUVEC assessed as reduction in IL-6-promoted signaling by measuring pSTAT3 protein levels at 100 uM pre-incubated for 30 mins before IL6 and sIL6Ralpha stimulation for 5 hrs by Western blotting analysis. Type of data set: cell-based.
For data set [6] the target is unchanged. The data set is described as follows: Activation of EPAC1 in HUVEC assessed as reduction in IL-6-promoted signaling by measuring pERK protein levels at 100 uM pre-incubated for 30 mins before IL6 and sIL6Ralpha stimulation for 5 hrs by Western blotting analysis. The class given is cell-based.
Data set [7] shares this target. In words: Activation of EPAC1 in HUVEC assessed as reduction in IL-6-promoted signaling by measuring pAKT protein levels at 100 uM pre-incubated for 30 mins before IL6 and sIL6Ralpha stimulation for 5 hrs by Western blotting analysis. The class given is cell-based.
For data set [8] the target is unchanged. The data set is described as follows: Activation of EPAC1 in HUVEC assessed as reduction in IL-6-promoted signaling by measuring VCAM1 protein expression at 100 uM pre-incubated for 30 mins before IL6 and sIL6Ralpha stimulation for 5 hrs by Western blotting analysis. The class given is cell-based.
For data set [9] the target is unchanged. In words: Activation of EPAC1 in HUVEC assessed as reduction in IL-6-promoted signaling by measuring ICAM1 protein expression at 100 uM pre-incubated for 30 mins before IL6 and sIL6Ralpha stimulation for 5 hrs by Western blotting analysis. Type of data set: cell-based.
Data set [10] has the same target. In words: Activation of EPAC1 in HUVEC assessed as reduction in IL-6-promoted signaling by measuring SELE protein expression at 100 uM pre-incubated for 30 mins before IL6 and sIL6Ralpha stimulation for 5 hrs by Western blotting analysis. The class given is cell-based.
Data set [11] addresses T2, Rap guanine nucleotide exchange factor 3 (Homo sapiens, UniProt O95398).
T2 sequence (O95398 whole entry): T1 sequence (whole entry)
The data set is described as follows: Binding affinity to GST-tagged recombinant EPAC1 CNBD (169 to 318 residues) (unknown origin) expressed in Escherichia coli BL21 Star (DE3) incubated for 4 hrs by 8-NBD-cAMP competition binding assay.

A short description of data set [12]: Binding affinity to GST-tagged recombinant EPAC1 delta-DEP mutant (149 to 881 residues) (unknown origin) expressed in Escherichia coli BL21 Star (DE3) incubated for 4 hrs by 8-NBD-cAMP competition binding assay. Also on record: species or system Homo sapiens.
Data set [13] addresses T1, Rap guanine nucleotide exchange factor 3 (Homo sapiens). In words: Activity at EPAC1 in HUVEC assessed as promotion of IL-6-promoted signaling by measuring increased pAKT protein levels at 100 uM pre-incubated for 30 mins before IL6 and sIL6Ralpha stimulation for 5 hrs by Western blotting analysis. Type of data set: cell-based.
In data set [14] the target is T2, Rap guanine nucleotide exchange factor 3. The data set is described as follows: Activation of recombinant EPAC1 (149 to 881 residues) (unknown origin) assessed as stimulation of dissociation of fluorescent MANT-GDP from recombinant Rap1b in presence of excess nonfluorescent nucleotides by fluorescence based in-vitro GEF assay.
Data set [15] addresses T1, Rap guanine nucleotide exchange factor 3 (Homo sapiens). The data set is described as follows: Activation of recombinant EPAC1 (149 to 881 residues) (unknown origin) assessed as stimulation of dissociation of fluorescent MANT-GDP from recombinant Rap1b up to 100 uM in presence of excess nonfluorescent nucleotides by fluorescence based in-vitro GEF assay relative to cAMP.

Data set [16] shares this target. In words: Activation of EPAC1 (unknown origin) expressed in U2OS cells at 100 uM pre-incubated for 10 mins before 8-pCPT-2'-O-Me-cAMP stimulation for 10 mins using GST-RalGDS-RBD by Western blot analysis based active GTP-bound Rap1 pull down assay. The class given is cell-based.
Data set [17] shares this target. The data set is described as follows: Activation of recombinant EPAC1 (149 to 881 residues) (unknown origin) assessed as stimulation of dissociation of fluorescent MANT-GDP from recombinant Rap1b at 500 uM in presence of excess nonfluorescent nucleotides by fluorescence based in-vitro GEF assay relative to cAMP.
For data set [18] the target is unchanged. The data set is described as follows: Activity at recombinant EPAC1 (149 to 881 residues) (unknown origin) assessed as reduction in cAMP-induced stimulation of dissociation of fluorescent MANT-GDP from recombinant Rap1b at 500 uM in presence of excess nonfluorescent nucleotides by fluorescence based in-vitro GEF assay.

With `Nc1ccc(S(=O)(=O)NC(=O)COc2ccc3ccccc3c2)cc1F`, the outcome in [1], in data set [5], in data set [6], in [7], in data set [8] and in [9] was inactive. Also, the result in data set [10] was inactive. Besides, the result in data set [2] and in data set [4] was Active. Also, in data set [3], the Activity result is “Not Active”.

Consider `Cc1ccc(S(=O)(=O)NC(=O)COc2ccc3ccccc3c2)c(C)c1`, for which the Activity in [1] worked out at 61%. Besides, the IC50 in [11] was 9.2 to 12 µM; in [12], 6.7 µM. The result in [4], in data set [5], in data set [8] and in data set [13] was Active. The result in [6] was inactive.

Turning to `COc1ccc2ccc(OCC(=O)NS(=O)(=O)c3ccc4ccccc4c3)cc2c1`, the Activity was 14% in data set [1] and “Not Active” in [3]. The IC50 in data set [12] came out at 0.5 µM. Moreover, the EC50 in data set [14] was determined as 5 µM. The result in data set [15], in data set [16] and in [2] was Active.

Consider `Cc1cc(Nc2ncccc2C(F)(F)F)cc(S(=O)(=O)NC(=O)COc2ccc3ccccc3c2)c1`, for which the Activity was 56% in [1] and “Not Active” in data set [3]. Further, the 50% inhibitory concentration (IC50) in data set [11] was 4.6 µM. Moreover, the result in data set [2], in data set [4], in data set [5], in data set [8] and in [13] was Active. Further, the result in data set [6], in data set [9] and in data set [10] was inactive.

On to `COc1ccc(S(=O)(=O)NC(=O)COc2ccc3ccccc3c2)c(OC)c1`, for which the Activity in [1] is 23%; in [17], 2%; in data set [3], “Not Active”. Besides, the IC50 in data set [12] stood at 4.9 µM. For the same molecule, the outcome in data set [18], in [16], in data set [2] and in data set [4] was Active. Further, the EC50 in data set [14] was found to be 5 µM.

Take `O=C(COc1ccc2ccccc2c1)NS(=O)(=O)c1ccc([N+](=O)[O-])c(F)c1`: the Activity in data set [1] is 81%; in data set [3] it was “Not Active”. In [11], the IC50 was 32.5 µM. The outcome in data set [2] and in [4] was Active. Further, the result in data set [5], in data set [6], in data set [7], in [8], in data set [9] and in data set [10] was inactive.

Turning to `COc1ccc2ccc(OCC(=O)NS(=O)(=O)c3ccc(N)cc3OC)cc2c1`, the Activity in [1] was 7%; in [17], 2%; in data set [3] it was “Not Active”. The IC50 in data set [12] amounted to 0.6 µM. Further, the outcome in data set [18], in data set [16], in data set [2] and in data set [4] was Active. In data set [14], the EC50 was 5 µM. Besides, the outcome in [5], in [6], in [7], in [8], in [9] and in data set [10] was inactive.

In general, IC50 refers to the concentration needed to halve the response being measured. One may read the EC50 as the concentration needed to bring the measured effect to its halfway point.
